Results on two compounds are retold here after article PMC11091220, “Metabolism-driven in vitro/in vivo disconnect of an oral ERɑ VHL-PROTAC” (Communications Biology, 2024).

Molecules are shown by their SMILES. Values joined by “and” are separate entries in the source; they are usually repeats but may differ in a detail not shown here. Identical values can stand only once.

In one series the test system is PR expression. Kind of series: ER agonism: PR expression in Ishikawa cells by western blot. In kind it is cell-based. The procedure: Fig. 8 Evidence of ER agonism of AZ’6421 and compound 8 in vitro and in vivo. a 100 nM compound or 10 nM estradiol (E2) were incubated with Ishikawa cells for 48 h and lysates measured for PR expression by western blot. b Normalised rat uterine weight shown as % change from respective vehicle control after 4 days dosing. c Representative H&E stained images taken from sections of uterine horn after 4 days of dosing. d Total plasma exposure of AZ’6421 and its metabolite 8 following dosing of 100 mg/kg BID or 30 mg/kg BID AZ’6421. Plasma samples were taken 4 hr after the 4th dose, at the same time as the uterus was weighed and sectioned for H&E staining.
(§1) Cells were seeded into 12-well tissue culture-treated plates at 0.5 x 10^6 cells/well in phenol red-free RPMI containing 5% (v/v) charcoal-stripped FBS (F6765, Sigma) and left to adhere overnight. In experiments to detect agonism or for SILAC experiments, FBS was double stripped using activated charcoal. Cells were treated with compound or 0.1% DMSO vehicle control for the times indicated prior to being lysed in Pierce RIPA buffer (Thermo Scientific), supplemented with protease and phosphatase inhibitors. Expression levels of proteins were determined by standard western blotting techniques (BioRad 4%-12% Bis-Tris gels). Antibodies were diluted in 5% milk-PBS-Tween and protein levels were detected using Pierce WestDura chemiluminescent reagents followed by visualisation and quantification on a Syngene ChemiGenius Imager. Where blots were quantified, protein levels were normalised to beta-actin or vinculin control and expressed as % of vehicle control.
For orientation: In western blotting, separated proteins are transferred to a membrane and probed.

The next series relates to uterus. Kind of series: Immature female rat model, uterine weight and histology. In kind it is in vivo. The source says: Some endocrine therapies, such as tamoxifen, have been reported to display weak agonistic activity in the endometrium due to altered cofactor recruitment and subsequent activation of gene transcription. We therefore sought to test whether AZ’6421 was a complete antagonist or could act as a partial agonist, in both in vitro and in vivo models. […] Plasma samples were taken 4 hr after the 4th dose, at the same time as the uterus was weighed and sectioned for H&E staining. To further explore whether AZ’6421 may be acting as an agonist in vivo, morphological changes of the uterine were examined: uterine horns were formalin-fixed paraffin-embedded, stained with haematoxylin and eosin and then transverse sections of uterus examined.

The target of series [1] is T1, ERα (Homo sapiens, UniProt P03372).
T1 construct: endogenous in cells; host or cells: MCF7 (also MCF7 engineered to express Cas9)
T1 sequence (P03372 1-595): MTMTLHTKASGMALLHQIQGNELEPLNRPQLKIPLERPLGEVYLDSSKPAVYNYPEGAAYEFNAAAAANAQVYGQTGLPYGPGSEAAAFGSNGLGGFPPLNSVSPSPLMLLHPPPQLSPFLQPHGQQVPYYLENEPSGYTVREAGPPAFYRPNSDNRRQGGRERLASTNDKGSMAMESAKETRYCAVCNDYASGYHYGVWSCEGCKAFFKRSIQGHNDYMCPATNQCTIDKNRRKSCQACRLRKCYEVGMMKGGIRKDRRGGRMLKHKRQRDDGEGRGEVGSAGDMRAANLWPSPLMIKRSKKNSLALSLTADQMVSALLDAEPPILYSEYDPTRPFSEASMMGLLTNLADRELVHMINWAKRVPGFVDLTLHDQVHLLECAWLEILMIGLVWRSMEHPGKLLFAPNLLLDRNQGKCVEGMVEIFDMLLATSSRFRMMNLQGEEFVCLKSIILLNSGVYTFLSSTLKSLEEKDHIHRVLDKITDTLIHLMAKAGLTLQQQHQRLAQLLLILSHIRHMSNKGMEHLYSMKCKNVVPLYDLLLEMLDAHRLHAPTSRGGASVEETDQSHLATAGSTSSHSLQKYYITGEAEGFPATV
The series is described as follows: Hypoxia studies, ERα degradation in MCF7 cells. In kind it is cell-based. The settings on record: 100 nM. Here is the method: MCF7 cells were seeded into 12-well tissue culture-treated plates at 0.5x10^6 cells/well in phenol red-free RPMI media containing 5% (volume/volume [v/v]) charcoal-stripped FBS (F6765, Sigma) and left to adhere overnight. The hypoxia-treated plates were transferred to a Thermo Heracell 150 Tri-gas Incubator set at 2% O2 and allowed to equilibrate to the lower oxygen level overnight. Cells were treated with compound or 0.1% DMSO vehicle control for 48 hours prior to being lysed in Pierce RIPA buffer (Thermo Scientific), supplemented with protease and phosphatase inhibitors. Lysis was carried out immediately after removal from the Tri-gas incubator to prevent the rapid degradation of HIF1α on re-exposure to the higher oxygen levels. Protein expression was determined by standard western blotting procedures as described above.

Series [2] concerns the target T1, ERα. Kind of series: SILAC pulse-chase and mass spectrometry, ERα turnover in MCF7 cells. In kind it is cell-based. The note with it: 1 µM. The procedure:
MCF7 cells were grown for a minimum of 2 passages in SILAC media (Pierce, Thermo Scientific) containing ^13C6^15N4 arginine and ^13C6 lysine. The extent of stable isotope incorporation was determined by mass spectrometry. For the assay, cells were plated at 1.2 x 10^6 cells/well into 6-well TC-treated plates in media containing 5% double charcoal stripped FBS^13,C6^15N4 arginine and ^13C6^15N2 lysine for 24 hours. At time 0, the media containing isotopically heavy arginine and lysine was replaced with media containing unlabelled equivalents plus either AZ’6421, fulvestrant or DMSO control. […] Equal concentrations of timecourse lysates were mixed with an internal standard lysate derived from ^[…] lysine labelled MCF7 cells. ER protein was immunoprecipitated overnight at 4 °C with an ER antibody (Rabbit clone SP1, Thermo Scientific) and immobilised onto a U-bottomed Nunc MaxiSorp plate (Thermo Scientific). Wells were sequentially washed with each of the following; RIPA buffer, PBS and water. Samples were digested by addition of 30 μL well sequencing grade trypsin (Promega) in 50 mM ammonium bicarbonate at 37 °C for a minimum of 16 hours. The resultant peptide samples were acidified and analysed by selected reaction monitoring (SRM) mass spectrometry. Protein half-life was determined using the one-phase exponential decay function in GraphPad PRISM where Y = (Y0 - Plateau)*exp(-K*X) + Plateau.

The target of series [3] is T1, ERα. Kind of series: Western blot analysis of ERα in MCF7 cells (dose response, MG132, VHL ligand and cpd 8 competition). It counts as cell-based. The note with it: MCF7. Here is the method:
Fig. 2 AZ’6421 degrades ERα through a PROTAC mechanism of action. a Immunoblots for ERα and vinculin loading control. MCF7 cells were pre-treated with 10 µM MG132 or DMSO control for 1 h before being exposed to DMSO, AZ’6421, or fulvestrant, at the concentrations indicated, for a further 7 h. A representative immunoblot from two biological replicates is shown. b As in a but cells were pre-treated with 10 µM VHL ligand (Ac-(S,R,S)-AHPC) prior to addition of DMSO, AZ’6421 or fulvestrant. c MCF7 cells expressing BFP-Cas9 were reverse transfected with the crRNA:tracrRNA pool targeting VHL for 72 h prior to treatment with increasing concentrations of AZ’6421 for a further 24 h. Cells were then fixed, stained, and imaged to assess ERα and Cas9 expression. ERα levels in Cas9 positive cells were normalised to unedited cells (0) and ESR1 KO cells (-100). Data points are from three independent experiments, points in bold represent the mean. d Structure of AZ’6421 and the (S)-prolinol epimer, 7. e Concentration-response curves for AZ’6421 and 7. ERα levels in MCF7 cells were assessed using an immunofluorescence endpoint after 24 h exposure to compound. […] Data points are from 5 (AZ'6421) or 2 (Cpd 7) independent experiments with technical duplicates performed for each experiment, bold points represent the mean. All concentration-response curves were plotted using nonlinear regression analysis in GraphPad Prism.
Fig. 6 Assessment of the cause of the in vitro/in vivo disconnect. a CTC174 tumours were disaggregated into single cells, seeded in 6-well plates and dosed with increasing concentrations of AZ’6421 for 24 hours before being lysed. ERα levels were assessed by immunoblotting. ERɑ levels normalised to vinculin and expressed as % DMSO control are shown underneath the immunoblot. b Representative IHC images taken from sections of tumour treated with vehicle control or 100 mg/kg AZ’6421 for 4 days. Sections were stained with an antibody against ERα (Sp1, Ventana). c Schematic of potential sites of metabolism d Free plasma exposure of AZ’6421 and its metabolite 8 following 100 mg/kg dosing of AZ’6421. e Concentration-response curves for AZ’6421 and metabolite 8. ERα levels in MCF7 cells were assessed using an immunofluorescence endpoint after 24 h exposure to compound. […] Points in bold represent the mean. f Effect of metabolite 8 on ERα degradation in CTC174 cells cultured ex vivo. […] MCF7 cells were pre-treated with 10 µM cpd 8 or DMSO control for 1 h before being exposed to DMSO, AZ’6421 or fulvestrant, at the concentrations indicated, for a further 24 h. A representative immunoblot from two biological replicates is shown. TEXT PRINTED IN THE PICTURE: (a) AZ'6421: ERα % of DMSO control: 20.3 (1 nM); ERα % of DMSO control: 12.0 (10 nM); ERα % of DMSO control: 4.1 (30 nM); ERα % of DMSO control: 4.2 (100 nM); ERα % of DMSO control: 3.9 (300 nM); ERα % of DMSO control: 3.6 (1000 nM)
as §1

In the case of `C[C@@H]1Cc2c([nH]c3ccccc23)[C@@H](c2c(F)cc(/C=C/C(=O)O)cc2F)N1CC(C)(C)F` [AZD9496, (E)-3-(3,5-Difluoro-4-((1R,3R)-2-(2-fluoro-2-methylpropyl)-3-methyl-2,3,4,9-tetra hydro-1H-pyrido[3,4-b]indol-1-yl)phenyl)acrylic Acid, reference compound], the “PR expression (% vs 10 nM E2)” value in the series on PR expression (100 nM compound, individual replicates) was 5.08% and 7%. In addition, in the series on PR expression (100 nM, 48 h), the “PR expression in the Ishikawa endometrial cell line” value is “induced PR expression”. For the same compound, the “Uterine weight normalised to body weight (% vehicle)” value in the series on uterus (5 mg/kg, individual animals) was 178.44% and 156.17% and 157.43% and 195.46% and 128.27%. Also, in the series on uterus (immature female rat, 4 days dosing), the “uterine epithelium morphology (H&E)” value is “low columnar uterine epithelium”.
Turning to `C[C@]12CC[C@@H]3c4ccc(O)cc4C[C@@H](CCCCCCCCC[S+]([O-])CCCC(F)(F)C(F)(F)F)[C@H]3[C@@H]1CC[C@@H]2O` (stereo partly shown) [fulvestrant, reference compound], the “ERa levels (% of vehicle control)” value on ERα [1] (Hypoxic) came to 5.829%; at ERα [1] (Normoxic), 10.860%. Also, the “% heavy (ERα heavy peptide)” value at ERα [2] (Time 0, MCF7) is 100.0%; at ERα [2] (Time 0.5) it was 39.1% and 49.6% and 42.4%; at ERα [2] (Time 1) it was 29.7% and 37.1% and 33.5%; at ERα [2] (Time 2) it was 20.8% and 29.3% and 28.1%; at ERα [2] (Time 4), 10.9% and 15.5% and 18.5%; on ERα [2] (Time 7), 5.3% and 6.8% and 7.7%. Moreover, the “% heavy (ERα heavy peptide)” value at ERα [2] (Time 24) is 4.3% and 6.1%; at ERα [2] (Time 48), 4.6% and 6.1% and 3.9%. In addition, the “effect of MG132 pre-treatment on ERα degradation” value at ERα [3] (10 µM MG132 1 h, then compound 7 h) was “attenuated ERα degradation”. The “effect of excess acetylated-(S,R,S)-AHPC pre-treatment on ERα degradation” value at ERα [3] (10 µM VHL ligand) is “had no effect”.
